Measured values reported in patent publication US7626027B2, “Substituted 1H-pyrrolo[2,3-c]pyridine-2-carboxamides and related analogs as inhibitors of casein kinase Iε” (Aventis Pharmaceuticals Inc, priority 2003, dated 2009).

biological target: T1, casein kinase 1ε (Homo sapiens, UniProt P49674); assay: Casein Kinase Epsilon 33P-ATP Filter Plate Assay; type: biochemical; conditions: not given
T1 construct: made in house
Text: Casein Kinase Epsilon ^33P-ATP Filter Plate Assay for Screening CK1 Inhibitors Purpose: This assay measures the effect of compounds to inhibit the phosphorylation of the substrate casein by the enzyme casein kinase 1ε using an in vitro ^33P-ATP filtration assay.
Equipment: • Beckman Biomek 2000 Liquid Handling Robot • Beckman Multimek 96 Automated 96 Channel Pipettor • Millipore Vacuum Manifold Basic Kit # MAVM0960R • Titertek Multidrop Liquid Dispenser • Packard TopCount NXT Liquid Scintillation Counter
Enzyme: • Casein Kinase 1ε final concentration 0.58 mg/ml obtained from fermentation and purification processes performed by Aventis Pharmaceuticals Inc., France. The above are stored as 100 μL aliquots at minus 80° C.
Compounds: • Compounds for testing are supplied as frozen 10 mM compound stock dissolved in 100% DMSO. Assay Conditions:
Final total assay volume per well is equal to 50 μL made up as follows: • 5 μL of diluted compound stock ([…], 0.1, 0.01 or 0.001 μM), • 5 μL of dephosphorylated casein final concentration 0.2 μg/μL, • 20 μL of CK1ε final concentration 3 ng/μL, and • 20 μL of γ-^33P-ATP final concentration 0.02 μCi/μL mixed with cold ATP (10 μM final). Methodology: • 1. 500 mL of fresh assay buffer is made: 50 mM Tris pH 7.5, 10 mM MgCl2, 2 mM DTT and 1 mM EGTA • 2. Compounds to be evaluated are obtained as 10 μL of 10 mM stock dissolved in 100% DMSO. Using a Biomek 2000 liquid handling robot, serial dilutions are made to yield 10, 1, 0.1, 0.01 and 0.001 μM final compound dilutions added as 5 μL additions to Falcon U bottom plates. […] A routine screening assay will consist of 32 compounds, which equals 4 assay plates. • 3. Assay plate maps are set up according to the following pattern
• 4. […] Finally 20 μL […] (0.02 μCi/μL)/10 μM cold ATP are added (equals approximately 2×10^6 CPM per well). • 6. The Falcon U-Bottom assay plate containing the above 50 μL reaction volume is vortexed and then incubated at room temperature for 2 hours. • 7. At the end of 2 hours, the reaction is stopped by the addition of 65 μL of ice cold 2 mM cold ATP (made up in assay buffer) to the assay plates using a Beckman Multimek • 8. At the same time 25 μL 100% ice cold TCA made up in distilled H2O is added to a matching number of Millipore MAPH filter plates. • 9. Using a handheld 8-channel pipettor, 100 μL of the reaction mixture is transferred from the Falcon U-Bottom Plate to the Millipore MAPH filter plates presoaked with TCA. • 10. The Millipore MAPH filter plates are mixed gently and allowed to sit at room temperature for at least 30 minutes to precipitate the proteins. • 11. After 30 minutes the filter plates are placed on a Millipore vacuum manifold and filtered at no more than 8 mm Hg as the MAPH filters tend to “air lock” at higher vacuum settings. • 12. The filter plates are sequentially washed and filtered with 2×150 μL 20% TCA, 2×150 μL 10% TCA and 2×150 μL 5% TCA (total of 6 washes per plate/900 μL per well). • 13. Plates are allowed to dry overnight at room temperature. The next day 40 μL Packard Microscint-20 Scintillation Fluid is added per well using a Titertek Multidrop dispenser; the plates are sealed and counted for 2 minutes/well in a Packard Topcount NXT Scintillation Counter (CPM values/well are captured). Calculation: • 1. Counts Per Minute (CPM) data is captured and imported into a proprietary data calculation and archiving database (Activity Base by IDBS version 5.0). • 2. Column 1 for each plate reflects total phosphorylation activity of the enzyme in the absence of any inhibiting compound and thus represents 100%. Column 12 reflects any nonspecific phosphorylation/retained radioactivity activity in the absence of inhibiting compound and enzyme.

T1 sequence (P49674 whole entry): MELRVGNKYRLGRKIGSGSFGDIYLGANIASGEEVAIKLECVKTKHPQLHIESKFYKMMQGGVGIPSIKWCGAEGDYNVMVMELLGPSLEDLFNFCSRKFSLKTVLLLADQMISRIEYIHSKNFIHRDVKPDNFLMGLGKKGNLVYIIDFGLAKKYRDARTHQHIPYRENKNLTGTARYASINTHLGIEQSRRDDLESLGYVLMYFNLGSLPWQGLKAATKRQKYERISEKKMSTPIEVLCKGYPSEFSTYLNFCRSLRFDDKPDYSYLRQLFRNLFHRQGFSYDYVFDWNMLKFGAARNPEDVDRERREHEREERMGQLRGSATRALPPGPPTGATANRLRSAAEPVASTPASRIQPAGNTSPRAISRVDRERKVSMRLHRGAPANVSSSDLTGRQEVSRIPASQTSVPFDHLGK

First: Cn1c(C(N)=O)c(Sc2ccccc2)c2ncccc21 [Ia-34, 1-Methyl-3-phenylsulfanyl-1H-pyrrolo[3,2-b]pyridine-2-carboxylic acid amide]
Second: CNC(=O)c1c(Sc2ccccc2)c2ncccc2n1C [Ia-29, 1-Methyl-3-phenylsulfanyl-1H-pyrrolo[3,2-b]pyridine-2-carboxylic acid methylamide]
The IC50 of the first is lower: 339 nM for the first, > 10000 nM for the second. The first is the more potent here.

First: NC(=O)c1[nH]c2cccnc2c1Sc1cccc(OC(F)(F)F)c1 [Ia-24, 3-(3-Trifluoromethoxy-phenylsulfanyl)-1H-pyrrolo[3,2-b]pyridine-2-carboxylic acid, amide]
Second: CNC(=O)c1[nH]c2cccnc2c1Sc1cccc(OC(F)(F)F)c1 [Ia-30]
The IC50 of the first is lower: 219 nM for the first, > 10000 nM for the second. The first is the more potent here.

Compared with `NC(=O)c1[nH]c2cnccc2c1S(=O)(=O)c1ccccc1` [Ic-2, 3-Benzenesulfonyl-1H-pyrrolo[2,3-c]pyridine-2-carboxylic acid amide], `NC(=O)c1[nH]c2cnccc2c1Sc1ccccc1` [Ic-1, 3-Phenylsulfanyl-1H-pyrrolo[2,3-c]pyridine-2-carboxylic acid amide] is lower in IC50: > 10000 nM for the first, 388 nM for the second.

Going from `NC(=O)c1[nH]c2cnccc2c1Sc1cccc(Cl)c1` [Ic-5, 3-(3-Chloro-phenylsulfanyl)-1H-pyrrolo[2,3-c]pyridine-2-carboxylic acid amide] to `NC(=O)c1[nH]c2cnccc2c1Sc1cccc(F)c1` [Ic-3, 3-(3-Fluoro-phenylsulfanyl)-1H-pyrrolo[2,3-c]pyridine-2-carboxylic acid amide], the IC50 rises from 375 nM to 1840 nM (4.9-fold).

Going from `CCc1ccccc1Sc1c(C(N)=O)[nH]c2cccnc12` [Ia-23, 3-(2-Ethyl-phenylsulfanyl)-1H-pyrrolo[3,2-b]pyridine-2-carboxylic acid amide] to `Cc1ccccc1Sc1c(C(N)=O)[nH]c2cccnc12` [Ia-19, 3-o-Tolylsulfanyl-1H-pyrrolo[3,2-b]pyridine-2-carboxylic acid amide], the IC50 falls from 6480 nM to 140 nM (46-fold). The second is the more potent here.

Going from `COc1ccccc1Sc1c(C(N)=O)[nH]c2cnccc12` [Ic-8, 3-(2-Methoxy-phenylsulfanyl)-1H-pyrrolo[2,3-c]pyridine-2-carboxylic acid amide] to `NC(=O)c1[nH]c2cnccc2c1Sc1ccccc1OC(F)(F)F` [Ic-7, 3-(2-Trifluoromethoxy-phenylsulfanyl)-1H-pyrrolo[2,3-c]pyridine-2-carboxylic acid amide], the IC50 rises from 442 nM to 1290 nM (2.9-fold). The first is the more potent here.

First: NC(=O)c1[nH]c2ccncc2c1Sc1cccc(F)c1 [Ib-2]
Second: NC(=O)c1[nH]c2ccncc2c1Sc1ccccc1 [Ib-1, 3-Phenylsulfanyl-1H-pyrrolo[3,2-c]pyridine-2-carboxylic acid amide]
The IC50 of the first is 2.4-fold lower: 466 nM for the first, 1130 nM for the second. The first is the more potent here.

First: NC(=O)c1[nH]c2cccnc2c1Sc1ccncc1 [Ia-27, 3-(Pyridin-4-sulfanyl)-1H-pyrrolo[3,2-b]pyridine-2-carboxylic acid amide]
Second: NC(=O)c1[nH]c2cccnc2c1Sc1cccc(N)c1 [Ia-16, 3-(3-Amino-phenylsulfanyl)-1H-pyrrolo[3,2-b]pyridine-2-carboxylic acid amide]
The IC50 of the first is 7-fold higher: 2980 nM for the first, 424 nM for the second.

`CNC(=O)c1[nH]c2cccnc2c1Sc1ccccc1` [Ia-33, 3-Phenylsulfanyl-1H-pyrrolo[3,2-b]pyridine-2-carboxylic acid methylamide] and `CNC(=O)c1[nH]c2cccnc2c1Sc1cccc(Cl)c1` [Ia-31] cannot be ordered by IC50: > 10000 nM for the first, > 10000 nM for the second.

Going from `Cc1cc(C)cc(Sc2c(C(N)=O)[nH]c3cccnc23)c1` [Ia-21, 3-(3,5-Dimethyl-phenylsulfanyl)-1H-pyrrolo[3,2-b]pyridine-2-carboxylic acid amide] to `NC(=O)c1[nH]c2cccnc2c1Sc1cc(Cl)ccc1Cl` [Ia-13, 3-(2,5-Dichloro-phenylsulfanyl)-1H-pyrrolo[3,2-b]pyridine-2-carboxylic acid amide], the IC50 rises from 6880 nM to > 10000 nM.

Going from `NC(=O)c1[nH]c2cccnc2c1Sc1cccc(C(F)(F)F)c1` [Ia-11, 3-(3-Trifluoromethyl-phenylsulfanyl)-1H-pyrrolo[3,2-b]pyridine-2-carboxylic acid, amide] to `NC(=O)c1[nH]c2cccnc2c1Sc1cccc(Cl)c1Cl` [Ia-9, 3-(2,3-Dichlorophenylsulfanyl)-1H-pyrrolo[3,2-b]pyridine-2-carboxylic acid amide], the IC50 rises from 709 nM to > 10000 nM. The first is the more potent here.

Compared with `NC(=O)c1[nH]c2cnccc2c1Sc1ccccn1` [Ic-9, 3-(Pyridin-2-sulfanyl)-1H-pyrrolo[2,3-c]pyridine-2-carboxylic acid amide], `NC(=O)c1[nH]c2cccnc2c1Sc1ccccn1` [Ia-26, 3-(Pyridin-2-sulfanyl)-1H-pyrrolo[3,2-b]pyridine-2-carboxylic acid amide] is 1.5-fold lower in IC50: 291 nM for the first, 190 nM for the second. The second is the more potent here.

Going from `CCCn1c(C(N)=O)c(Sc2ccccc2)c2ncccc21` [Ia-37, 3-Phenylsulfanyl-1-propyl-1H-pyrrolo[3,2-b]pyridine-2-carboxylic acid amide] to `COc1ccccc1Sc1c(C(N)=O)[nH]c2cccnc12` [Ia-14, 3-(2-Methoxy-phenylsulfanyl)-1H-pyrrolo[3,2-b]pyridine-2-carboxylic acid amide], the IC50 rises from 123 nM to 669 nM (5.4-fold). The first is the more potent here.

Going from `NC(=O)c1[nH]c2cnccc2c1Sc1ccccc1C(F)(F)F` [Ic-6, 3-(2-Trifluoromethyl-phenylsulfanyl)-1H-pyrrolo[2,3-c]pyridine-2-carboxylic acid amide] to `COc1cccc(Sc2c(C(N)=O)[nH]c3cnccc23)c1` [Ic-4, 3-(3-Methoxy-phenylsulfanyl)-1H-pyrrolo[2,3-c]pyridine-2-carboxylic acid amide], the IC50 falls from 759 nM to 397 nM (1.9-fold). The second is the more potent here.

Going from `NC(=O)c1[nH]c2cccnc2c1Sc1cccs1` [Ia-28, 3-(Thiophen-2-ylsulfanyl)-1H-pyrrolo[3,2-b]pyridine-2-carboxylic acid amide] to `NC(=O)c1[nH]c2cccnc2c1Sc1ccc([N+](=O)[O-])cc1` [Ia-17, 3-(4-Nitro-phenylsulfanyl)-1H-pyrrolo[3,2-b]pyridine-2-carboxylic acid amide], the IC50 rises from 53 nM to 9790 nM (180-fold). The first is the more potent here.

First: COc1cccc(Sc2c(C(N)=O)[nH]c3ccc(OC)nc23)c1 [Ia-36, 3-(3-Methoxy-phenylsulfanyl)-5-methoxy-1H-pyrrolo[3,2-b]pyridine-2-carboxylic acid amide]
Second: COc1ccc2[nH]c(C(N)=O)c(Sc3cccc(F)c3)c2n1 [Ia-35, 3-(3-Fluoro-phenylsulfanyl)-5-methoxy-1H-pyrrolo[3,2-b]pyridine-2-carboxylic acid amide]
The IC50 of the first is 10-fold lower: 86 nM for the first, 896 nM for the second.

`NC(=O)c1[nH]c2ccncc2c1Sc1ccc(Cl)cc1` [Ib-3] gave an IC50 of 7960 nM.

same assay, conditions: phosphorylation of casein, 10 μM cold ATP, 2 hours room temperature; * denotes average of 2 or more determinations; read-out: Casein Kinase Iε 33P-ATP Filter Plate Assay IC50

With `CNC(=O)c1[nH]c2cccnc2c1Sc1cccc(F)c1` [Ia-32] the IC50 was > 10000 nM.
